Measured values from patent US20230093684A1, “STIMULI - OR BIO- RESPONSIVE COPOLYMERS, THE POLYMERSOMES COMPRISING THE SAME AND THEIR USE IN DRUG DELIVERY” (CENTRE NATIONAL DE LA RECHERCHE SCIENTIFIQUE, priority 2019, published 2023).

Experiment: Glutathione (GSH)-triggered doxorubicin release followed by fluorescence
Assay type: physicochemical
Settings: Dox solution in brine 0.9% + GSH 10 mM
Description: Release of the encapsulated compound: The amount of released dye was followed at RT by fluorescence spectroscopy (Hitachi F7000 spectrometer). […] The λex excitation wavelength was set at 480 nm and the emission λem spectra were recorded from 490 to 720 nm. The instrument was used in scan mode, with excitation slit set to 5 nm and emission slit set to 5 nm.
The liberation of doxorubicin was followed by monitoring the fluorescence. Fluorescence spectra were collected by excitation at λex=470 nm wavelength and reading at λem=600 nm. In order to quantify the encapsulated drug, a method for the quantitative liberation was needed. Different methods, such as solvolysis, photolysis, addition of redox agents (sodium dithionite, mercaptoethanol, sodium thiosulfate, glutathione) were tested and are discussed as follows.
In parallel, Quino-Ps-DOX (50 μL) was treated with the […] glutathione (GSH) in its reduced form, 1 μL at c=10 mM in brine (0.9% (v/w). The concentration of the GSH was set to 10 mM in order to be compatible with the highest intracellular level (FIG. 5).
The amount of the liberated drug was quantified by fluorescence (λex=470 nm and λem=600 nm), by using a calibration curve (FIG. 6) ([…] (R^2=0.9911)). […]

In the case of `COc1cccc2c1C(=O)c1c(O)c3c(c(O)c1C2=O)C[C@@](O)(C(=O)CO)C[C@@H]3O[C@H]1C[C@H](N)[C@H](O)[C@H](C)O1` [doxorubicin], the “fluorescence intensity of free doxorubicin treated with GSH (stability control)” value is reported as “no change in the fluorescence intensity”.
